Molecules are shown by their SMILES. ≈ marks a conversion by molar mass, not a printed value. Where “and” joins values, the source holds several entries; their conditions need not be identical. Equal entries are not always repeated. A value given as a limit tells only on which side of the number the result lay.

Data set [1] can be described thus: Compound was tested in vitro for antiviral activity against sandfly fever-Sicilian (SF) virus (Concentration required for the 50%inhibition of virus-induced cell death); inactive. It is filed as functional.
Data set [2] in a line: Compound was tested in vitro for antiviral activity against Punta Toro (PT) virus (Concentration required for the 50%inhibition of virus-induced cell death); inactive. It is filed as functional.
Data set [3] can be described thus: Compound was tested in vitro for antiviral activity against Punta Toro (PT) virus (Concentration which was cytotoxic to 50% of uninfected cells). Particulars: read-out: TC50 (the source's name); call rule not given here.
A short description of data set [4]: Compound was tested in vitro for antiviral activity against sandfly fever-Sicilian (SF) virus (Concentration which was cytotoxic to 50% of uninfected cells). Particulars: read-out: TC50 (the source's name).
A short description of data set [5]: Compound was tested in vitro for antiviral activity against Punta Toro (PT) virus (Concentration required for the 50%inhibition of virus-induced cell death). It is filed as functional.
Data set [6] can be described thus: Compound was tested in vitro for antiviral activity against sandfly fever-Sicilian (SF) virus (Concentration required for the 50%inhibition of virus-induced cell death). It is filed as functional.
A short description of data set [7]: Compound was tested in vitro for antiviral activity against dengue-4-virus (Concentration which was cytotoxic to 50% of uninfected cells). To be noted: dengue virus type 4, uninfected cells; read-out: TC50 (the source's name).
Another data set relates to Vaccinia virus. In words: Compound was tested in vitro for antiviral activity against vaccinia virus (Concentration required for the 50%inhibition of virus-induced cell death). It is filed as functional, organism-based. To be noted: Orthopoxvirus vaccinia.
For data set [8], the system named is dengue virus type 4. In words: Compound was tested in vitro for antiviral activity against dengue-4-virus (Concentration required for the 50%inhibition of virus-induced cell death). It is filed as functional, organism-based.
The nature of data set [9]: Compound was tested in vitro for antiviral activity against vaccinia virus (Concentration which was cytotoxic to 50% of uninfected cells). It is filed as organism-based. Particulars: orthopoxvirus vaccinia, read-out: TC50 (the source's name).
The nature of data set [10]: Therapeutic index is expressed as ratio of TC50/IC50. Particulars: for selectivity ratio: read-out: TI50.
Data set [11] deals with Influenza A virus. The data set can be described thus: Compound was tested in vitro for antiviral activity against influenza B virus (Concentration required for the 50%inhibition of virus-induced cell death). It is filed as functional, organism-based.
For data set [12], the system named is dengue virus type 4. The data set can be described thus: Compound was tested in vitro for antiviral activity against dengue-4- virus (Concentration required for the 50%inhibition of virus-induced cell death). It is filed as functional, organism-based.
Data set [13] can be described thus: Compound was tested in vitro for antiviral activity against influenza A virus (Concentration which was cytotoxic to 50% of uninfected cells). It is filed as organism-based. Particulars: read-out: TC50 (the source's name).
Data set [14] deals with Respiratory syncytial virus. The data set can be described thus: Compound was tested in vitro for antiviral activity against respiratory syncitial virus (Concentration required for the 50%inhibition of virus-induced cell death). Particulars: human respiratory syncytial virus. It is filed as functional, organism-based.
A short description of data set [15]: Compound was tested in vitro for antiviral activity against respiratory syncitial virus (Concentration which was cytotoxic to 50% of uninfected cells). Particulars: read-out: TC50 (the source's name).
Data set [16] deals with Influenza A virus. In words: Compound was tested in vitro for antiviral activity against influenza A virus (Concentration required for the 50%inhibition of virus-induced cell death). It is filed as functional, organism-based.
The next data set concerns Human respirovirus 3. In words: Compound was tested in vitro for antiviral activity against parainfluenza type 3 virus (Concentration required for the 50%inhibition of virus-induced cell death). It is filed as functional, organism-based.
The nature of data set [17]: Compound was tested in vitro for antiviral activity against parainfluenza type 3 virus (Concentration which was cytotoxic to 50% of uninfected cells). Particulars: human respirovirus 3, uninfected cells; read-out: TC50 (the source's name).
Data set [18] is described as follows: Compound was tested in vitro for antiviral activity against Punta Toro (PT) virus (Concentration required for the 50%inhibition of virus-induced cell death); IA - Viral cytopathic effect reduced 25%-49% only. It is filed as functional. In general terms: Cytopathic effects are the visible damage that an infection or toxin causes in cultured cells.
Data set [19] can be described thus: Compound was tested in vitro for antiviral activity against dengue-4- virus (Concentration which was cytotoxic to 50% of uninfected cells). Particulars: read-out: TC50 (the source's name).

As a reminder, the IC50 is the concentration needed to halve the response being measured. For `Cl.OC[C@H]1O[C@@H](n2cnc(C3=NCCCN3)n2)[C@H](O)[C@@H]1O`, the half-maximal inhibitory concentration (IC50) entry in [1] and in data set [2] was “Not Active” each time. Moreover, the CC50 in data set [3] and in [4] was over 3200 µg/mL throughout.

On to `NC(=O)CC(/N=C(/N)c1ncn(C2O[C@H](CO)[C@@H](O)[C@H]2O)n1)C(=O)O` (some centres not stated), for which the figures for the IC50 in data set [5] and in data set [6] were 1600 µg/mL (≈ 4470 µM) and 484 µg/mL (≈ 1350 µM), respectively. In addition, the CC50 in data set [3] and in data set [4] was over 3200 µg/mL in each case.

On to `C/N=C(\NC)c1ncn([C@@H]2O[C@H](CO)[C@@H](O)[C@H]2O)n1.Cl`, for which the CC50 in data set [7] was over 250 µg/mL; in [3], 2900 µg/mL; in data set [4], over 1000 µg/mL; in data set [9], over 1000 µg/mL. For the same molecule, the IC50 was 181 µg/mL in data set [5], 94 µg/mL in data set [6], 184 µg/mL in the data set with Vaccinia virus and 162 µg/mL in the data set with dengue virus type 4 [8].

Consider `CCCCCCCC/N=C(/N)c1ncn(C2O[C@H](CO)[C@@H](O)[C@H]2O)n1` (some centres not stated), for which the IC50 entry in [2] is “Not Active”; in [6] it was 339 µg/mL (≈ 954 µM). In addition, in data set [10], the selectivity ratio is over 3. Further, the CC50 in data set [3] and in data set [4] was over 1000 µg/mL in each case.

With `NC(=O)CCC(/N=C(/N)c1ncn(C2O[C@H](CO)[C@@H](O)[C@H]2O)n1)C(=O)O` (some centres not stated), the half-inhibitory concentration (IC50) came out at 2690 µg/mL (≈ 7220 µM) in data set [5] and 547 µg/mL (≈ 1470 µM) in data set [6]. Moreover, the CC50 in data set [3] and in data set [4] was over 3200 µg/mL in each case.

On to `Cl.N=C(N)c1ncn([C@@H]2O[C@H](CO)[C@@H](O)[C@H]2O)n1` [TARIBAVIRIN HYDROCHLORIDE], for which the IC50 with Influenza A virus [11] was 48 µg/mL; in data set [5] it was 83 µg/mL; in [6] it was 36 µg/mL; in the data set on Vaccinia virus, 59 µg/mL; with dengue virus type 4 [12], 100 µg/mL; in data set [14] it was 16 µg/mL. The CC50 in data set [7] is 250 µg/mL; in data set [3], 752 µg/mL; in data set [4], 800 µg/mL; in [13], over 1000 µg/mL; in data set [9] it was over 320 µg/mL; in data set [15] (human respiratory syncytial virus), over 1000 µg/mL.

Consider `CCCC/N=C(/N)c1ncn(C2O[C@H](CO)[C@@H](O)[C@H]2O)n1` (some centres not stated), for which, in data set [10], the TI50 came out at 16. Further, the selectivity ratio in [10] came out at 13.7. For the same molecule, the IC50 in data set [5] came to 41 µg/mL (≈ 137 µM); in data set [6] it was 73 µg/mL (≈ 244 µM). Also, the CC50 in data set [3] was 660 µg/mL (≈ 2200 µM); in data set [4] it was over 1000 µg/mL.

For the molecule `CNC(=O)c1ncn([C@@H]2O[C@H](CO)[C@@H](O)[C@H]2O)n1`, the IC50 entry in data set [1] and in [2] was “Not Active” each time. For the same molecule, the CC50 in [3] and in data set [4] was over 320 µg/mL each time.

Take `C/N=C(/N)c1ncn([C@@H]2O[C@H](CO)[C@@H](O)[C@H]2O)n1.Cl`: the IC50 was determined as 63 µg/mL in the data set with Influenza A virus [16]; 250 µg/mL in [5]; 104 µg/mL in [6]; 198 µg/mL in the data set on Vaccinia virus; 24 µg/mL in [14]; 125 µg/mL in the data set with Human respirovirus 3. The CC50 in data set [3] is over 1000 µg/mL; in data set [4], over 1000 µg/mL; in data set [13], over 1000 µg/mL; in [9], over 320 µg/mL; in data set [15] (respiratory syncytial virus) it was over 1000 µg/mL; in data set [17], over 1000 µg/mL.

`N/C(=N/CC(=O)O)c1ncn(C2O[C@H](CO)[C@@H](O)[C@H]2O)n1` (some centres not stated): the selectivity ratio in [10] is over 5.66. Also, the results for the IC50 entry in [18] and in data set [6] were “Not Active” and 566 µg/mL (≈ 1880 µM), respectively. Further, the figures for the CC50 in data set [3] and in data set [4] were over 1000 µg/mL and over 3200 µg/mL, respectively.

As for `Cl.OC[C@H]1O[C@@H](n2cnc(C3=NCC(O)CN3)n2)[C@H](O)[C@@H]1O` (some centres not stated), the IC50 result in data set [1] and in data set [2] was “Not Active” each time. The CC50 in data set [3] and in data set [4] was over 320 µg/mL in each case.

As for `COC(=N)c1ncn([C@@H]2O[C@H](CO)[C@@H](O)[C@H]2O)n1`, the TI50 in data set [10] was 8.6 and 3.7 and > 3.3. Moreover, the CC50 in [7] is over 250 µg/mL; in [3], 744 µg/mL (≈ 2880 µM); in data set [4], 840 µg/mL (≈ 3250 µM). Moreover, the results for the half-maximal inhibitory concentration (IC50) (in data set [5]; in [6]; in the data set with dengue virus type 4 [8]) were 201 µg/mL (≈ 778 µM), 98 µg/mL (≈ 380 µM) and 76 µg/mL (≈ 294 µM), respectively.

As to `N#C/N=C(/N)c1ncn(C2O[C@H](CO)[C@@H](O)[C@H]2O)n1` (some centres not stated), the 50% inhibitory concentration (IC50) result in [1] is “Not Active”; in data set [2] it was “Not Active”; with dengue virus type 4 [12] it was 250 µg/mL (≈ 932 µM). For the same molecule, in data set [10], the selectivity ratio was over 1. The CC50 in [3] is over 1000 µg/mL; in data set [4] it was over 1000 µg/mL; in data set [19] it was over 250 µg/mL.
